Source: patent US12491187B2, “Use of MCT1 inhibitors to enhance insulin sensitivity” (H. LEE MOFFIT CANCER CENTER AND RESEARCH INSTITUTE, INC., priority 2022, dated 2025)

How the values were obtained:
Type in all cases: cell-based, murine
3T3-L1 cells = assay: Oil Red O staining of lipid during preadipocyte differentiation; conditions: differentiated in the presence of 1 μM AZD3965, vs control 3T3-L1
Experimental: Differentiation Protocol: The 3T3-L1 differentiation protocol was adapted from Green and Meuth (1974) (Zebisch, K, et al. Anal. Biochem. 2012 425:88-90; Green, H, et al. Cell 1974 3:127-133). Cells were seeded at approximately 80% confluency and allowed to reach confluency prior to induction of differentiation. 1-2 days post confluency, growth media was changed to ‘day 0’ media consisting of media supplemented with 0.5 mM 1-methyl-3-isobutyl xanthine (IBMX), 1 µM dexamethasone, and 10 μg/mL insulin. On ‘day 3’ media was changed to growth media with 10 μg/mL insulin only, and on ‘day 6’ media was replaced with normal growth media. After day 6, the complete media was refreshed every 2 days. Using Oil Red O staining, RT-qPCR and immunoblotting, it was determined that 3T3-L1 cells were fully differentiated into lipid-laden adipocytes by ‘day 8’ of the protocol, as reported by others (Petersen, C, et al. Sci. Rep. 2017 7:13101; Mangum, L H, et al. Toxicol. Lett. 2015 238:65-71). All differentiation experiments were performed on cells between passage 4 and 6 to ensure differentiation efficiency was consistent. Oil Red O Staining: Cells were then fixed with 4% PFA for 10 minutes. […] 10× images of cells were taken from randomized fields of view with the Cytation 5 Cell Imaging Multi-Mode reader (BioTek Instruments). Lipid content was also quantified on the Cytation 5.

[1] = tested on: differentiated 3T3-L1 cells; assay: RT-qPCR of mRNA levels in differentiated adipocytes
Experimental: RT-qPCR: RNA was harvested from preadipocytes using the RNeasy® Plus Mini Kit as per manufacturer's recommendations (Qiagen). For differentiated adipocytes, RNA was collected and isolated using TRIzol (Thermo Fisher Scientific) according to the manufacturer's instructions. Quantification of RNA was performed using the Nanodrop 1000 Spectrophotometer. RNA (2 μg) was reverse transcribed using Superscript III First Strand synthesis kit (Invitrogen). RT-qPCR detection with SYBR green was performed with the resulting cDNA and a 50/50 forward primer: reverse primer ratio using the QuantStudio™ 5 (Applied Biosystems™). Oligonucleotide primer sequences used in this study can be found in the table below.

[2] = tested on: differentiated 3T3-L1 adipocytes; assay: NAD+/NADH ratio (NAD+/NADH-Glo); conditions: 1 μM
Experimental: NAD+/NADH Ratio: 3T3-L1 cells were seeded, differentiated and treated with or without AZD3965 (1 μM) for 15 min, 30 min, 1 hr, 4 hr, 8 hr or 24 hr in clear 96 well plates (Corning®). Following incubation with the compound, the NAD+/NADH-Glo™ (Promega®) kit was used to measure both the NAD+ and NADH concentrations within each sample according to the manufacturer's protocol. Briefly, samples were lysed and split into 2 separate white 96 well plates (Corning®). One plate was treated with a strong acid (0.4N HCl) to eliminate NADH in the sample while the other plate was treated with a strong base (0.2N NaOH) to eliminate NAD+, and both plates were incubated at 60° C. for 15 minutes. Samples were then neutralized and subjected to the NAD+/NADH-Glo™ assay. Within this assay, in the presence of NAD+ or NADH, an enzyme ‘Reductase’ reduces a pro-luciferin reductase substrate to form luciferin which emits a luminescent signal directly proportional to the quantity of NAD+ or NADH within the sample. Luminescence was read on a spectrophotometer (FlexStation 3; Molecular Devices). To calculate the NAD+/NADH ratio for each sample, luminescence from acid-treated samples, (reflecting NAD+level), was divided by the luminescence signal from the corresponding base-treated samples (reflecting NADH levels).

[3] = tested on: differentiated 3T3-L1 cells; assay: Proliferation (CyQUANT NF) of differentiated adipocytes; conditions: 72 hr treatment, all concentrations ≥1 μM
Experimental: Proliferation: 3T3-L1 cells were seeded and differentiated in black clear bottom 96-well plates (Corning®). After differentiation, wells were treated with vehicle or AZD3965 concentrations ranging from 10 nM to 10 µM for 24 hr, 48 hr or 72 hr as indicated. Cell viability was measured at the end of each treatment time using the CyQUANT™ NF Cell Proliferation assay (Invitrogen™) according to the manufacturer's protocols.

preadipocytes (3T3-L1) = assay: Proliferation (CyQUANT NF) of preadipocytes; conditions: 72 hr
[4] = tested on: differentiated 3T3-L1 adipocytes; assay: Hyperplasia (intracellular triglycerides, Triglyceride-Glo)
Experimental: Hyperplasia (Intracellular Triglycerides): 3T3-L1 cells were seeded and differentiated in clear bottom 96-well plates (Corning®). After differentiation, cells were treated with or without 1 μM AZD3965 for 24 hr, 48 hr or 72 hr. After compound incubation, media was changed to normal growth media with or without 100 nM insulin and cultured for an additional 72 hrs. Upon completion of the second incubation period, adipocytes were lysed and subjected to the Triglyceride-Glo™ Assay (Promega®) according to the manufacturer's instructions. The luminescent signal produced is proportional to the amount of triglycerides detected within the sample. Luminescence was read on a spectrophotometer (FlexStation 3; Molecular Devices).

[5] = differentiated adipocytes, 1 μM, 24 hr
[6] = mature adipocytes, 24 hr treatment

Structure (SMILES): Cc1[nH]nc(C(F)(F)F)c1Cc1sc2c(c1C(=O)N1C[C@](C)(O)CO1)c(=O)n(C)c(=O)n2C(C)C [AZD3965, 5-[[(4S)-4-hydroxy-4-methyl-2-isoxazolidinyl]carbonyl]-3-methyl-1-(1-methylethyl)-6-[[5-methyl-3-(trifluoromethyl)-1H-pyrazol-4-yl]methyl]-thieno[2,3-d]pyrimidine-2,4 (1H, 3H)-dione]
- lipid content (Oil Red O staining) over the course of differentiation (3T3-L1 cells): significantly less lipid
- CDK1 mRNA level [1, 5]: significant upregulation
- Cyclin B mRNA level [1, 5]: significant upregulation
- PLK1 mRNA level [1, 5]: significant upregulation
- TOP2A mRNA level [1, 5]: significant upregulation
- FABP4 mRNA levels [1, 6]: significantly increased
- HSL mRNA levels [1, 6]: significantly decreased
- PPARγ transcript levels [1, 6]: significant decrease
- NAD+/NADH ratio ([2]; all time points measured (15 min-24 hr)): significant change
- NAD+/NADH ratio ([2]; first 8 hr of treatment): significant decrease
- total cell number (proliferation) [3]: significant increase in total cell number
- proliferation (preadipocytes (3T3-L1)): no effect on proliferation
- total triglyceride content ([4]; pretreated 1 μM 24 hr and 72 hr, then cultured 72 hr with 100 nM insulin): did not reach statistical significance
- total triglyceride content ([4]; pretreated 1 μM 48 hr, then cultured 72 hr with 100 nM insulin): significantly more triglycerides
- total triglyceride content ([4]; pretreated 1 μM up to 72 hr, then cultured 72 hr without insulin): significantly more triglycerides
